From publication PMC12794516, “Modulation of endothelial-to-mesenchymal transition via NRP-1 targeting with melittin attenuates pulmonary fibrosis” (Materials Today Bio, 2025) come the findings set out here.

Data set [1] is described as follows: In vivo and ex vivo fluorescence imaging (biodistribution, blood and lung retention). Also noted: species or system C57BL/6 mice. The method, then:
To evaluate the biodistribution and lung targeting of MLT and M-pLNP, two fluorescence imaging experiments were performed in a BLM-induced PF model. In the first study, normal and PF mice (n = 6) received a single intraperitoneal injection of MLT-RhB (or PBS control), and were euthanized 30 min later for collection of major organs. In the second study, PF mice were randomly divided into two groups receiving either MLT-RhB or M-pLNP-RhB. Comprehensive in vivo whole-body fluorescence imaging was performed at multiple time points (10 min, 30 min, 1 h, 3 h and 6 h) after administration. Additionally, ex vivo analysis was conducted by collecting blood samples and lung tissues at […] critical time points (10 min, 30 min, 1 h, 6 h, 12 h, and 24 h). All imaging was performed using an IVIS Lumina XRMS system, in vivo and ex vivo samples were imaged through RhB channels (Ex/Em = 545/570 nm). Mean fluorescence intensity was used to quantitatively assess tissue distribution and lung accumulation.

The subject of another data set is NRP-1 receptor on HUVECs. Put plainly: In vitro cell targeting (uptake of MLT-RhB, flow cytometry and confocal imaging). The format is cell-based, Human. Conditions: flow cytometry; HUVECs with TGF-β1 10 ng/mL 48 h; MLT-RhB 2 μg/mL 1 h; n = 3. The method, then: To assess the NRP-1 receptor-targeting ability of MLT, HUVECs were seeded into 96-well plates at a density of 1.5 × 10^4 cells per well and cultured overnight in complete growth medium. TGF-β1 (10 ng/mL) was added to all groups except the control group and incubated for 48 h. Subsequently, each group was treated with the RPARPAR peptide (0.5 mM) for 1 h, followed by the addition of MLT-RhB (2 μg/mL) for an additional hour. For flow cytometry, cells were processed and analyzed using a flow cytometer (Dakewe Biotech Co., Ltd., China), and data were analyzed with FlowJo software (FlowJo, Ashland, OR, USA). For immunofluorescence, following the same treatment protocol, cells were fixed with 4 % paraformaldehyde and immunostained. NRP-1 was detected using an anti-NRP-1 primary antibody and an Alexa Fluor® 647-conjugated secondary antibody. Nuclei were stained with DAPI. Imaging was performed using a SpinSR10 spinning disk confocal super-resolution microscope (Olympus, Japan) with the following excitation wavelengths: 405 nm for DAPI; 535 nm for RhB; and 640 nm for NRP-1.
On the technique in general: A flow cytometer gives signals particle by particle.

A further data set concerns HUVECs. The data set is described as follows: Cell viability assay (MTS). Conditions: 24 h incubation, n = 3. Format: cell-based, Human. The method, then:
Cell viability was assessed using the MTS assay (Promega). Briefly, HUVECs were seeded at 5000 cells/well in triplicate in a 96-well plate. When the density of the cells reached approximately 80 %, MLT at different concentrations was added, and the cells were incubated for 24 h. Then, 20 μL of MTS reagent was added to each well, followed by incubated for 2 h. Absorbance was measured at 490 nm using a microplate reader.

Where [2] appears, read: RhB-labeled, single i.p. injection, PF mice, ex vivo lung fluorescence, n = 3.

Take MLT-RhB: Rhodamine B-labeled MLT: in data set [1] (MLT-RhB single intraperitoneal injection, ex vivo imaging 30 min post-injection, PF vs normal mice, n = 3), the “lung radiant efficiency, PF lungs vs control” value is given as approximately 1.5 fold. The “mean fluorescence intensity (MFI) of RhB in TGF-β1 group vs control group (uptake)” value in the data set with NRP-1 receptor on HUVECs was “significantly higher than that in the control group”.
Consider `CC[C@H](C)[C@H](NC(=O)CN)C(=O)NCC(=O)N[C@@H](C)C(=O)N[C@H](C(=O)N[C@@H](CC(C)C)C(=O)N[C@@H](CCCCN)C(=O)N[C@H](C(=O)N[C@@H](CC(C)C)C(=O)N[C@H](C(=O)N[C@H](C(=O)NCC(=O)N[C@@H](CC(C)C)C(=O)N1CCC[C@H]1C(=O)N[C@@H](C)C(=O)N[C@@H](CC(C)C)C(=O)N[C@H](C(=O)N[C@@H](CO)C(=O)N[C@@H](Cc1c[nH]c2ccccc12)C(=O)N[C@H](C(=O)N[C@@H](CCCCN)C(=O)N[C@@H](CCCNC(=N)N)C(=O)N[C@@H](CCCCN)C(=O)N[C@@H](CCCNC(=N)N)C(=O)N[C@@H](CCC(N)=O)C(=O)N[C@@H](CCC(N)=O)C(N)=O)[C@@H](C)CC)[C@@H](C)CC)[C@@H](C)O)[C@@H](C)O)C(C)C)C(C)C` [MLT, Melittin], for which the “time within which the blood fluorescence signal was nearly undetectable” value in data set [1] (RhB-labeled, single i.p. injection, 15 nmol RhB equivalent per mouse, PF mice, blood samples) is not above 6 h. The “time within which the peritoneal fluorescence signal was substantially weakened” value in data set [1] (RhB-labeled, single i.p. injection, 15 nmol RhB equivalent per mouse, PF mice, in vivo imaging) was determined as 30 min. Also, in data set [1] (setting [2]), the “time by which lung fluorescence reached near-background levels (clearance)” value is not above 6 h and the “time of peak lung accumulation” value is given as 30 min. Further, in the data set on HUVECs, the “concentration at which MLT started to induce cellular toxicity” value worked out at 8000 ng/mL.
